According to paper PMC11351458, “Bioaffinity Ultrafiltration Combined with HPLC-ESI-qTOF-MS/MS for Screening Potential Bioactive Components from the Stems of Dendrobium fimbriatum and In Silico Analysis” (Antioxidants, 2024):
Like-named read-outs stand apart in the source and are kept apart here. Marks after values point to notes of the source that are not given here.

Key:
[1] = target: T1, inducible nitric oxide synthase (iNOS) (Mus musculus, UniProt P29477); assay: Bioaffinity ultrafiltration assay with inducible nitric oxide synthase; assay type: binding; settings: components of EtOAc extract; EF = (A1 − A2)/A0 × 100%
T1 construct: purchased Sigma-Aldrich (St. Louis, MO, USA)
Procedure: (§1) The bioaffinity ultrafiltration assay was conducted using a previously described procedure. […] The reaction was conducted at 37 °C for 30 min, then centrifuged using a 14,000× g ultracentrifuge filter at 30 °C for 15 min. The filtrate was removed and 200 μL of Tris-HCl buffer was added to the ultracentrifuge filter and centrifuged at 14,000× g for 15 min at 30 °C. The previous step was repeated 3 times and the filtrate was removed. Then, 200 μL of methanol was added to the ultracentrifuge filter and centrifuged at 14,000× g for 15 min at 30 °C. The previous step was repeated 3 times and the filtrate was collected. The filtrate was concentrated and then dissolved in 50 μL MeOH for HPLC analysis. In addition, the processing of iNOS-ligand complexes was conducted following previously reported methods, while inducible nitric oxide synthase bioaffinity ultrafiltration assays were performed, as detailed above.
(§2) The binding affinity of compounds and enzymes using enrichment factor (EF) was assessed, and was counted as follows: A1, A2, and A0 represent the peak areas of picked compounds acquired from the extracts incubated with activated, inactivated, and no acetylcholinesterase, respectively. EF (%) = (A1 − A2)/A0 × 100%

[2] = Ferric reducing antioxidant power (FRAP); settings: mM Trolox equivalents per g
Procedure: FRAP was measured by the method reported in the previous literature. The working solution was mixed with acetate buffer (pH 3.6), ferric chloride solution (20 mM), and TPTZ solution (10 mM TPTZ in 40 mM HCl) at a proportion of 10:1:1, respectively, and freshly prepared before being used. A total of 900 μL of the working solution was warmed to 37 °C and then mixed with 100 μL of the diluted sample, blank or standard, in a microcentrifuge tube. The tubes were vortexed in a dry bath at 37 °C for 40 min. The absorbance was measured at 593 nm. The standard curve was linear between 0 and 100 mM Trolox. Results were expressed as mM TE/g dry weight. Additional dilution was needed if the FRAP value measured was over the linear range of the standard curve.

[3] = Superoxide radical scavenging activity; settings: 50% free radical scavenging; for EC50: isolated components, read-out: SC50 Superoxide
Procedure: A superoxide radical scavenging assay was performed based on previously reported methods. The superoxide radical was generated in 16 mM Tris-HCl buffer (pH 8.0) containing 50 μL of NBT (300 μM), 50 μL of PMS (120 μM), and 50 μL of different concentrations of the test sample. The reaction was initiated by adding 50 μL of NADH (468 μM) solution to the mixture. After incubating at room temperature for 5 min, the activity of samples was determined by the decrease in absorbance measured at 560 nm against the sample concentration.

[4] = ABTS cation radical scavenging activity; settings: 50% free radical scavenging; for EC50: isolated components, read-out: SC50 ABTS
Procedure: The ABTS cation radical scavenging effect was measured, as previously described by. […] The working solution was diluted by EtOH to reach the absorbance of 0.70 ± 0.02 at 740 nm for further experiments. Different concentrations (400, 200, 100, 50, and 25 µg/mL) of extracts or compounds (10 µL) were mixed with the working solution (190 μL). The mixture was incubated at room temperature for 6 min, and the antioxidant activity of the mixture was determined by the decrease in absorbance measured at 740 nm.

[5] = DPPH radical scavenging activity; settings: 50% free radical scavenging; for EC50: isolated components, read-out: SC50 DPPH
Procedure: The DPPH radical scavenging effect was measured based on the reported method. BHT was applied as a positive control. DPPH solution was prepared diluted by EtOH to reach the final concentration of 400 µM. Different concentrations (400, 200, 100, 50, and 25 µg/mL) of extracts or compounds (100 µL) were mixed with DPPH solution (100 µL) and incubated for 30 min at room temperature and in darkness, and the absorbance of the mixture was measured at 520 nm.

α-glucosidase = assay: α-Glucosidase inhibitory activity assay; assay type: biochemical; settings: isolated compounds
Procedure: To test the anti-α-glucosidase effect of each solvent extract and each component, a previously described method was used. […] The α-glucosidase solution was diluted to 1 U/mL with 0.1 M sodium phosphate buffer (pH 6.8). Various concentrations of extract or compound (100 µL) and α-glucosidase solution (20 µL) were mixed. Subsequently, 0.53 mM p-NPG (380 µL) was added and incubated at 37 °C for 40 min. The reaction was stopped by adding 500 μL of 0.1 M Na2CO3 solution, and the absorbance was detected at 405 nm.
α-glucosidase inhibition (%) was counted as follows (Asample and Acontrol represent the absorbance of the tested sample and control, respectively):α-glucosidase inhibition (%) = (Acontrol − Asample)/Acontrol × 100%

[6] = test system: NO production in RAW 264.7 cells; assay: Nitric oxide (NO) inhibition assay; assay type: cell-based, murine; settings: Mus musculus
Procedure: In this experiment, the RAW 264.7 macrophage cell line was used. The cells were stored at −196 °C in liquid nitrogen. After thawing, the cells were cultured in DMEM at 37 °C and 5% CO2 supplemented with 10% FBS, […] L-glutamine, 1 mM sodium pyruvate, 100 μg/mL streptomycin, and 100 U/mL penicillin.
NO inhibition assay was slightly modified from the reported method. The day before the experiment, RAW 264.7 cells were seeded into 96-well plates with 2 × 10^4 cells per well. The cells were pretreated with the sample solution, and then incubated at 37 °C for 1 h. After incubation, the cells were treated with 100 ng/mL of LPS to induce an inflammatory response. After incubation at 37 °C for 20 h, 50 μL of the supernatant was transferred from each well to another 96-well plate and mixed with an equal volume of Griess reagent. Finally, the absorbance was acquired at 550 nm after 20 min of incubation.

[7] = target: T2, acetylcholinesterase (AChE) (Electrophorus electricus, UniProt O42275); assay: Bioaffinity ultrafiltration assay with acetylcholinesterase; assay type: binding; settings: components of EtOAc extract; EF = (A1 − A2)/A0 × 100%
T2 construct: purchased Sigma-Aldrich (St. Louis, MO, USA)
T2 sequence (O42275 24-633): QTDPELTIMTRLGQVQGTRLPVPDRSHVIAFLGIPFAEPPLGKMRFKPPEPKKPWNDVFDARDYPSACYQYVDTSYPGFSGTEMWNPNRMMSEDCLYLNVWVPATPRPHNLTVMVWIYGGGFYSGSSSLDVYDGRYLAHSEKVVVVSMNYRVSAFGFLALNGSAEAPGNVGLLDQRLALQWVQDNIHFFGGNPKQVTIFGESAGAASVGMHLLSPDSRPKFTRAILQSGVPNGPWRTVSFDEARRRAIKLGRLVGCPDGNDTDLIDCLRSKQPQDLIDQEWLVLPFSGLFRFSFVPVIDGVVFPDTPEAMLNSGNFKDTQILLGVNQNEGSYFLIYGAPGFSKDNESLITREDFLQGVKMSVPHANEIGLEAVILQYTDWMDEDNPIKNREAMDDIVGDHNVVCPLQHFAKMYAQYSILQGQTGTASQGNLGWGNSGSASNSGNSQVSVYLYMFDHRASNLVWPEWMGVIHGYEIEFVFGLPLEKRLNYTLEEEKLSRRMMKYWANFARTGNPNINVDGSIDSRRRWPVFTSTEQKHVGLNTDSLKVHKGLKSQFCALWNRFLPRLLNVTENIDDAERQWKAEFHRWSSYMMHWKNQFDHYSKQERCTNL
Procedure: as §1, §2

[8] = target: T2, acetylcholinesterase (AChE); assay: biochemical
Procedure: The acetylcholinesterase inhibitory assay was carried out applying a method described in reference. Briefly, 0.1 M sodium phosphate buffer (pH 8.0, 140 μL), DTNB (10 μL), sample (20 μL), and AChE solution (15 μL) were added to a 96-well microplate and incubated at room temperature for 10 min. Finally, the absorbance was detected with a spectrophotometer at 405 nm.
The acetylcholinesterase inhibitory effect was counted as follows (Asample and Acontrol represent the absorbance of the tested sample and control, respectively):Acetylcholinesterase inhibitory activity (%) = (Acontrol − Asample)/Acontrol × 100%

[9] = test system: LPS-induced iNOS expression in RAW 264.7 murine macrophages; assay: Western blotting of LPS-induced iNOS expression; assay type: cell-based; settings: 50 μM; LPS-induced RAW 264.7; Western blot
Procedure: Western blotting was conducted with the previous procedure. Cells were treated with different concentrations of compounds and 100 ng/mL of LPS for a day. After rinsing cells with cold PBS, proteins were harvested with radioimmunoprecipitation assay buffer (RIPA buffer) and stored at −20 °C for succeeding procedure. Proteins were separated on a 12.5% SDS-polyacrylamide gel and then electrophoretically transferred to a PVDF membrane. The membrane was soaked in 2% bovine serum albumin (BSA) blocking buffer for 2 h, then washed 2–3 times with TBST. Proteins were treated by particular primary antibodies and immersed overnight. The following day, PVDF membranes were washed with TBST to remove residual primary antibodies, and then immersed with secondary antibodies for 2 h. Then, enhanced chemiluminescence solution was coated on the membrane and visualized using an ImageQuant LAS 4000 Mini Biomolecular Imager (GE Healthcare, Marlborough, MA, USA). Finally, we quantified band density by ImageJ software 1.53a (BioTechniques, New York, NY, USA).

[10] = RAW264.7, isolated components, LPS-treated RAW 264.7 cells, read-out: NO Inhibition IC50
[11] = isolated compounds, read-out: IC50 AChE (converted)

SMILES | iNOS EF (enrichment factor) [1] [%] | TE FRAP ([2]; isolated components) | EC50 [3] [µM] | EC50 [4] [µM] | EC50 [5] [µM] | AChE EF (enrichment factor) [7] [%] | further results
COc1cc(O)cc(CCc2cccc(O)c2)c1 [Batatasin III (3), batatasin III] | 27.18 | 559.67 ± 51.49 ^c mM/g | > 400 | 30.1 ± 1.7 | > 400 | 31.87 | TE FRAP ([2]; isolated components, listed as batatasin III): 559.67 ± 51.49 mM/g; IC50 (α-glucosidase): 723 ± 53.5 µM; IC50 [6, 10]: 51.3 ± 5.51 µM; IC50 [8, 11]: 258 ± 18.5 µM
Cc1cc(C(C)(C)C)c(O)c(C(C)(C)C)c1 [BHT, butylated hydroxytoluene, reference compound] | – | 4355.95 ± 99.23 mM/g | – | 53.7 ± 1.48 | 90.8 ± 5.65 | – | TE FRAP ([2]; solvent extracts): 4296.98 ± 48.40 mM/g; SC50 ABTS ([4]; solvent extracts): 46.83 ± 0.44 µg/mL; SC50 DPPH ([5]; solvent extracts): 36.64 ± 2.22 µg/mL
COc1c(O)cc2ccc3cc(O)ccc3c2c1OC [Nudol] | 24.39 | – | – | – | – | 29.56 | –
COc1ccc2c(c1)CCc1cc(O)cc(OC)c1-2 [Coelonin] | 5.09 | – | – | – | – | 2.00 | –
COc1ccc(CCc2cc(OC)c(OC)c(OC)c2)cc1O [Erianin] | 1.72 | – | – | – | – | 0.23 | –
COc1cc(O)cc2ccc3cccc(O)c3c12 [Moscatin (2), moscatin] | 88.99 | 1396.40 ± 57.03 ^c mM/g | > 400 | 10.3 ± 1.92 | 26.7 ± 1.63 | 66.31 | TE FRAP ([2]; isolated components, listed as moscatin): 1396.40 ± 57.03 mM/g; inhibition of iNOS expression [9]: 69.76%; IC50 (α-glucosidase): 478 ± 33.4 µM; IC50 ([6]; RAW264.7, read-out: NO Inhibition IC50): 23.5 ± 3.16 µM; IC50 [8]: 162 ± 16.5 µM
O=C(/C=C/c1ccc(O)c(O)c1)O[C@@H]1C[C@](O)(C(=O)O)C[C@@H](O)[C@H]1O [Chlorogenic acid, chlorogenic acid, reference compound] | – | – | – | – | – | – | IC50 [8, 11]: 236 ± 15.9 µM; IC50 ([8]; solvent extracts, read-out: IC50 AChE (converted)): 214 µM
Oc1ccc(CCc2cc(O)cc(O)c2)cc1 [Dihydroresveratrol] | 0.62 | – | – | – | – | 0.08 | –
O=c1c(O)c(-c2ccc(O)c(O)c2)oc2cc(O)cc(O)c12 [Quercetin, quercetin, reference compound] | – | – | – | – | – | – | IC50 [6, 10]: 23.1 ± 1.43 µM; IC50 ([6]; RAW264.7, solvent extracts, LPS-treated RAW 264.7 cells, read-out: NO Inhibition IC50): 6.98 ± 0.43 µg/mL
Oc1ccc2c(c1)CCc1cc(O)cc(O)c1-2 [2,4,7-Trihydroxy-9,10-dihydrophenanthrene] | 0.91 | – | – | – | – | 1.32 | –
O=c1cc(-c2ccc(O)c(O)c2)oc2cc(O[C@@H]3O[C@H](CO)[C@@H](O)[C@H](O)[C@H]3O)cc(O)c12 [Cynaroside, cynaroside, reference compound] | – | – | 50.6 ± 2.62 | – | – | – | SC50 Superoxide ([3]; solvent extracts): 112.76 ± 5.84 µg/mL
COc1cc(CCc2cc(OC)c(O)c(OC)c2)ccc1O [Dendrophenol (4), dendrophenol] | 65.11 | 1686.53 ± 16.61 ^c mM/g | > 400 | 7.64 ± 0.63 | 11.6 ± 0.77 | 59.48 | TE FRAP ([2]; isolated components, listed as dendrophenol): 1686.53 ± 16.61 mM/g; inhibition of iNOS expression [9]: 89.82%; IC50 (α-glucosidase): 608 ± 48.2 µM; IC50 [6, 10]: 14.3 ± 3.17 µM; IC50 [8, 11]: 165 ± 13.2 µM
COc1cc(O)cc(CCc2ccc(O)c(OC)c2)c1 [Gigantol (1), gigantol] | 44.84 | 1483.20 ± 63.49 ^c mM/g | > 400 | 12.2 ± 0.54 | 35.2 ± 1.34 | 54.60 | TE FRAP ([2]; isolated components, listed as gigantol): 1483.20 ± 63.49 mM/g; IC50 (α-glucosidase): 470 ± 28.5 µM; IC50 [6, 10]: 63.7 ± 11.4 µM; IC50 [8, 11]: 176 ± 19.1 µM
COc1cc(CCc2cc(O)cc(O)c2)ccc1O [Tristin] | 0.95 | – | – | – | – | 5.83 | –
